Data taken from patent EP4772530A1, “PEPTIDE TARGETING SOMATOSTATIN RECEPTOR, DRUG CONJUGATE AND USE THEREOF” (Mainline Biosciences (Shanghai) Co., Ltd., priority 2023, dated 2025).
pEC50: −log10 of the molar value. “And” between values parts separate entries of the source, which are not always exact repeats. Equal entries are not always repeated. Structures can show the parent of a compound that is named as a salt. *1 amine or outer side, *2 acyl side, *3 side chain or, on linkers, in order; H or OH if unused. Where a SMILES comes first, the peptide text is derived from it. Bridges are numbered along the chain shown (N, C = ends). Roman numbers before positions name the chains, in order. [ ]: non-standard residue; d: D form. The star is where a group is joined. Hexanoyl(6-succinimido-3yl) = O=C1CC([*:1])C(=O)N1CCCCCC(=O)[*:2]; Dolaproine = CO[C@@H]([C@@H]1CCCN1)[C@@H](C)C(=O)O; Dil = CC[C@H](C)[C@H](NC)[C@@H](CC(=O)O)OC; PABC = O=C(OCc1ccc(N[*:1])cc1)[*:2]; PEG6 = NCCOCCOCCOCCOCCOCCOCCC(=O)O; X2 = C[C@@H](N*)[C@@H](O)c1ccccc1; Cit = NC(=O)NCCC[C@H](N)C(=O)O; NMeV = CN[C@H](C(=O)O)C(C)C; AEEA = NCCOCCOCC(=O)O

Assays:
SSTR2 = target: T1, SSTR2 (Homo sapiens, UniProt P30874); assay: SSTR2 cAMP test; type: cell-based; conditions: for activity at 50 µM: Max Dose 50000 nM; for pEC50: SSTR2/CHO cells, Forskolin, cAMP activation rate
T1 construct: expressed in transfected cells; host or cells: CHO cells (SSTR2/CHO)
Description: • 1) Compound preparation: The test compound was diluted by 4-fold with DMSO to obtain 10 different concentration points. Approximately 100 nL of the diluted compound was then transferred to a cell reaction plate and centrifuged for later use. • 2) Cell preparation:The cultured SSTR2/CHO cells were collected into a sterile centrifuge tube, and the supernatant was discarded by centrifugation. • 3) The cells were resuspended in assay buffer, counted using a Vi-cell counter, and diluted with assay buffer. • 4) Approximately 100 nL of 100 µM Forskolin was transferred into the cell reaction plate using an Echo and centrifuged. Then, 10 µL of assay buffer containing the cells was added and incubated. • 5) Approximately 10 µL of cAMP detection reagent solution was added to the corresponding wells of the cell reaction plate, and incubated at room temperature in the dark. • 6) The plate was read using a microplate reader. The final value was determined as the ratio of OD at 665 nm to that at 615 nm. • 7) The cAMP value was calculated for each well: Activity (%)=(signal value of sample well - mean signal value of low-signal control wells)/ (mean signal value of high-signal control wells - mean signal value of low-signal control wells). Fitting was performed using the "Nonlinear regression (curve fit)-log(agonist) vs. response -- Variable slope" model in GraphPad Prism 5.0, with the log-transformed compound concentration on the x-axis and cAMP activation rate on the y-axis. The EC50 value of the sample was calculated accordingly. Table 2: SSTR2 cAMP Test Results

[1] = tested on: Human multiple myeloma MM.1S cells; assay: EX3.3 in vivo pharmacodynamics, MM.1S subcutaneous xenograft model; design: species or system CB17 SCID mice; conditions: for Tumor Volume (Mean ± SEM): Ixazomib Citrate 4 mg/kg, Oral Gavage, Twice Weekly
Description: Human multiple myeloma MM.1S cells were suspended and cultured in vitro in 1640 medium containing 10% fetal bovine serum, 100 U/mL penicillin, and 100 µg/mL streptomycin in a 5% CO2 incubator at 37°C. The suspended cells were collected by centrifugation twice a week and adherent cells were digested with trypsin-EDTA to prepare a cell suspension for subculture. When the cell saturation was 80%-90% and the cell number reached the requirement, the cells were collected, counted, and inoculated.
CB17 SCID mice, female, 6-8 weeks old, weighing 18-22 g, provided by Zhejiang Vital River Laboratory Animal Technology Co., Ltd.
Each mouse was subcutaneously injected with 100 µL of PBS containing 5×10^6 MM.1S cells + 100 µL of Matrigel (final volume: 200 µL) at the axilla of the right forelimb. At 20 days after injection, when the average tumor volume reached 109 mm^3, mice were grouped for dosing (vehicle control,Ixazomib Citrate, and Example 1 treatment groups, with 6 animals per group). The Ixazomib Citrate group was orally administered by gavage (4 mg/kg) twice a week; the vehicle control group (5%DMSO + 95% normal saline) and the Example 1 treatment group (1.75 mg/kg) were slowly intravenously injected for about 30 seconds each time, twice a week.
The experimental indicators were used to investigate whether tumor growth was inhibited, delayed, or cured. The tumor diameter was measured twice a week using a vernier caliper. The tumor volume was calculated as follows: V = 0.5a×b^2, where a and b were the long and short diameters of the tumor, respectively.
The anti-tumor efficacy of the drug was evaluated based on TGI (%) or relative tumor proliferation rate T/C (%). TGI (%) was the tumor growth inhibition rate. TGI (%) was calculated as follows: TGI (%)=[(1 -(mean tumor volume at the end of dosing in a certain treatment group - mean tumor volume at the start of dosing in the treatment group))/ (mean tumor volume at the end of dosing in the vehicle control group - mean tumor volume at the start of dosing in the vehicle control group)]× 100%.
T/C (%) was calculated as follows:T/C (%)= TRTV/ CRTV× 100 %. Based on the results of tumor measurement, the relative tumor volume (RTV) was calculated as follows: RTV = Vt/V0, where V0 was the mean tumor volume measured at the time of grouping (i.e. d0), and Vt was the mean tumor volume at a certain measurement. Data on the same day were taken for TRTV and CRTV.
Tumor weights were measured at the end of the experiment and T/Cweight was calculated, where Tweight and Cweight were tumor weights in the treatment and vehicle control groups, respectively.
Statistical analysis, including the mean and standard error (SEM) of tumor volume at each time point in each group (see Table 5-1 in Section 5.2 for specific data), was performed to evaluate differences between groups based on data from the treatment group on Day 18 post-dose at the end of the experiment. A t-test was used for comparison between two groups, and one-way ANOVA was used for comparison among three or more groups. If there was a significant difference in F value, the Games-Howell method was used for testing; if there was no significant difference in F value, the Dunnet (2-sided) method was used for analysis. All data were analyzed using SPSS 17.0.

[2] = 18 days after the start of dosing, Ixazomib Citrate 4 mg/kg oral gavage twice a week

T1 sequence (P30874 whole entry): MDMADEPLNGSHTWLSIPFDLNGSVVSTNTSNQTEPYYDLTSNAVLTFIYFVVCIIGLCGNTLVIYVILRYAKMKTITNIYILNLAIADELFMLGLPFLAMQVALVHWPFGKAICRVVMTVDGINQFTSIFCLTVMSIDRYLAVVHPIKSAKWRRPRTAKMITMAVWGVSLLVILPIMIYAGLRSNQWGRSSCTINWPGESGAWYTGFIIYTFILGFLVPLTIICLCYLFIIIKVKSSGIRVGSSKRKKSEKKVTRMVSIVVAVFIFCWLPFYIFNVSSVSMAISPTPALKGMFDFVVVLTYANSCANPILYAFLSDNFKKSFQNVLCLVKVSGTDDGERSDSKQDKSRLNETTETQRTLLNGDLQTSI

Compound: CC[C@H](C)[C@@H]([C@@H](CC(=O)N1CCC[C@H]1[C@H](OC)[C@@H](C)C(=O)N[C@H](C)[C@@H](O)c1ccccc1)OC)N(C)C(=O)[C@@H](NC(=O)[C@H](C(C)C)N(C)C(=O)OCc1ccc(NC(=O)[C@H](CCCNC(N)=O)NC(=O)[C@@H](NC(=O)CCCCCN2C(=O)CC(SC[C@H](NC(=O)CCOCCOCCOCCOCCOCCOCCN)C(=O)NCCOCCOCCOCCOCCOCCOCCC(=O)N[C@@H](CCCNC(=N)N)C(=O)N[C@@H](CCCNC(=N)N)C(=O)N[C@@H](CC(C)C)C(=O)N[C@@H](Cc3ccccc3)C(=O)N[C@H]3CSSC[C@@H](C(=O)N[C@H](C(=O)N[C@@H](Cc4c[nH]c5ccccc45)C(=O)N[C@@H](CCCNC(=N)N)C(=O)N[C@@H](CC(=O)O)C(N)=O)[C@@H](C)O)NC(=O)[C@H]([C@@H](C)O)NC(=O)[C@H](CCCCN)NC(=O)[C@@H](Cc4c[nH]c5ccccc45)NC(=O)[C@H](Cc4ccc(O)cc4)NC3=O)C2=O)C(C)C)cc1)C(C)C (stereo partly drawn) [Example 2, PEG6-Cys(MC-Val-Cit-PABC-MMAE)-PEG6-Arg-Arg-Leu-Phe-[Cys-Tyr-D-Trp-Lys-Thr-Cys]-Thr-Trp-Arg-Asp-NH2] (I: H-[PEG6]C[PEG6]RRLFCY[dW]KTCTWRD-NH2 / II: V[Cit][PABC][NMeV]V[Dil][Dolaproine]-X2; linker I:2-II:N via Hexanoyl(6-succinimido-3yl); disulfide I:8-I:13)
- activity at 50 µM (SSTR2): 95.4%
- pEC50 (SSTR2): 6.32

Compound: CC(C)C[C@H](NC(=O)[C@H](CCCNC(=N)N)NC(=O)[C@@H](N)CCCNC(=N)N)C(=O)N[C@@H](Cc1ccccc1)C(=O)N[C@H]1CSSC[C@@H](C(=O)N[C@H](C(=O)N[C@@H](Cc2c[nH]c3ccccc23)C(=O)N[C@@H](CCCNC(=N)N)C(=O)N[C@@H](CC(=O)O)C(N)=O)[C@@H](C)O)NC(=O)[C@H]([C@@H](C)O)NC(=O)[C@H](CCCCN)NC(=O)[C@@H](Cc2c[nH]c3ccccc23)NC(=O)[C@H](Cc2ccccc2)NC1=O [SEQ ID No. 2, H-Arg-Arg-Leu-Phe-[Cys-Phe-D-Trp-Lys-Thr-Cys]-Thr-Trp-Arg-Asp-NH2] (H-RRLFCF[dW]KTCTWRD-NH2; disulfide 5-10)
- activity at 150 µM (SSTR2; Max Dose 150000 nM): 99.1%
- pEC50 (SSTR2): 7.45

Compound: CC[C@H](C)[C@@H]([C@@H](CC(=O)N1CCC[C@H]1[C@H](OC)[C@@H](C)C(=O)N[C@H](C)[C@@H](O)c1ccccc1)OC)N(C)C(=O)[C@@H](NC(=O)[C@H](C(C)C)N(C)C(=O)OCc1ccc(NC(=O)[C@H](CCCNC(N)=O)NC(=O)[C@@H](NC(=O)CCCCCN2C(=O)CC(SC[C@H](NC(C)=O)C(=O)NCCOCCOCC(=O)NCCOCCOCC(=O)NCCOCCOCC(=O)N[C@@H](CCCNC(=N)N)C(=O)N[C@@H](CCCNC(=N)N)C(=O)N[C@@H](CC(C)C)C(=O)N[C@@H](Cc3ccccc3)C(=O)N[C@H]3CSSC[C@@H](C(=O)N[C@H](C(=O)N[C@@H](Cc4c[nH]c5ccccc45)C(=O)N[C@@H](CCCNC(=N)N)C(=O)N[C@@H](CC(=O)O)C(N)=O)[C@@H](C)O)NC(=O)[C@H]([C@@H](C)O)NC(=O)[C@H](CCCCN)NC(=O)[C@@H](Cc4c[nH]c5ccccc45)NC(=O)[C@H](Cc4ccccc4)NC3=O)C2=O)C(C)C)cc1)C(C)C (stereo partly drawn) [Example 8, Ac-Cys(MC-Val-Cit-PABC-MMAE)-AEEA-AEEA-AEEA-Arg-Arg-Leu-Phe-[Cys-Phe-D-Trp-Lys-Thr-Cys]-Thr-Trp-Arg-Asp-NH2] (I: Ac-C[AEEA][AEEA][AEEA]RRLFCF[dW]KTCTWRD-NH2 / II: V[Cit][PABC][NMeV]V[Dil][Dolaproine]-X2; linker I:1-II:N via Hexanoyl(6-succinimido-3yl); disulfide I:9-I:14)
- activity at 50 µM (SSTR2): 98.4%
- pEC50 (SSTR2): 6.39

Compound: CC(C)C[C@H](NC(=O)CNC(=O)c1cc(Cl)ccc1Cl)B1OC(=O)C(CC(=O)O)(CC(=O)O)O1 [Ixazomib Citrate]
- T/C [1, 2]: 38.38%
- TGI [1, 2]: 71.76%
- Tumor Volume (Mean ± SEM) ([1]; Day 0): 109 ± 6 mm3
- Tumor Volume (Mean ± SEM) ([1]; Day 4): 245 ± 23 mm3
- Tumor Volume (Mean ± SEM) ([1]; Day 7): 337 ± 25 mm3
- Tumor Volume (Mean ± SEM) ([1]; Day 11): 452 ± 59 mm3
- Tumor Volume (Mean ± SEM) ([1]; Day 14): 586 ± 100 mm3
- Tumor Volume (Mean ± SEM) ([1]; Day 18): 781 mm3 and 781 ± 177 mm3
- Tumor Volume (Mean ± SEM) ([1]; Day 21): 925 ± 226 mm3
- Tumor Volume (Mean ± SEM) ([1]; Day 25): 1,139 ± 271 mm3
- Tumor Volume (Mean ± SEM) ([1]; Day 28): 1,365 ± 331 mm3
